# Data: ChEMBL document CHEMBL1123329, “Aromatase inhibitors. Synthesis and evaluation of mammary tumor inhibiting activity of 3-alkylated 3-(4-aminophenyl)piperidine-2,6-diones” (J Med Chem, 1986)
# Values joined by “and” are separate entries in the source; they are usually repeats but may differ in a detail not shown here. Equal entries are not always repeated.
# What was measured:
# Rattus norvegicus [1] = organism: Rattus norvegicus; type: functional; conditions: dose 20 mg/kg
# Rattus norvegicus [2] = organism: Rattus norvegicus; type: functional; conditions: dose 20 mg/kg; remark: listed apart in the source
structure (smiles),measurement,setting,value
C[C@]12CC[C@H]3[C@@H](CCC4=CC(=O)CC[C@@]43C)[C@@H]1CC[C@@H]2O [TESTOSTERONE],Change of tumor area,Rattus norvegicus [1],-37% and -24% and -29%
same,Uterine weight effect,Rattus norvegicus [2],23.3 and 29.3 and 34.7
